Test results as given in US12018023B2 (NERVIANO MEDICAL SCIENCES S.R.L., priority 2018, dated 2024).

How the values were obtained:
IDH1^R132C = target: T1, IDH1^R132C (Homo sapiens, UniProt O75874, R132C); test: NADPH depletion assay, IDH1 R132C; format: biochemical
T1 construct: purchased not specified
Outline: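 IDH1 R132C (2 nM) preincubated 15 min at RT with compound in Tris-HCl pH 7.6/MgCl2 buffer, then 60 min RT with NADPH and 0.14 mM alpha-ketoglutarate. Remaining NADPH read by diaphorase/resazurin fluorescence (Ex544/Em590).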

U87MG_IDH1R132H = test: Cellular 2-HG production assay, U87-MG-IDH1 R132H; format: cell-based; conditions: inhibition of 2HG production, 72 hr incubation, LC-MS/MS
Procedure: (§1) Cell lines HT-1080 (commercially available) and U87-MG-IDH1^R132H (obtained in analoy to the procedure reported in J. Mol. Neurosci 2013, 50, 165-71) are maintained in E-MEM 10% FCS and incubated at 37° C. in a humidified 5% CO2 atmosphere. Stably transfected U87-MG cell lines are also supplemented with 500 μg/mL G418.
(§2) Cells are seeded into 96 well black flat bottom plates at a density of 500 cells/well in 100 μL complete medium. After 24 hr the medium is replaced with 200 uL of fresh medium and compounds (dissolved into DMSO) are administrated to the cells using D300E Digital Dispenser (Tecan).
(§3) After 72 hr of incubation 100 uL from each well are collected and used for 2HG (R(−)-2-hydroxyglutarate) quantification.
(§4) Levels of 2-HG in cell culture media are determined by LC-MS/MS. Cell supernatants (100 μL/well) are treated with 1 M aqueous trichloroacetic acid containing 130 μM of the internal standard 2-HG-d3 (20 μL/well) in a 96-well plate.
(§5) The plates are sealed, mildly vortexed for 60 minutes, centrifuged at 4,000 RPM for 15 minutes, placed in a refrigerated autosampler taking care not to shake them, and aliquots of the upper part of the samples are directly injected in the chromatographic system. Calibration standards are obtained by ten fold dilution of aqueous 2-HG stock solutions with blank cell culture medium and denatured exactly in the same way as described above for samples. Samples and standards are assayed for 2-HG by reversed phase chromatography on a C18 column eluted with aqueous 0.15% formic acid and briefly washed with 90% methanol at the end of the run. 2-HG is determined by negative ion electrospray ionization with the internal standard method on a triple quadrupole mass spectrometer monitoring the MRM transitions 147>129 (2-HG) and 150>132 (2-HG-d3). 2-HG inhibition was calculated by comparing treated versus control data using Assay Explore (Symyx) software, with IC50 determined using a sigmoidal fitting algorithm.

[1] = target: T2, IDH1^R132H homodimer enzyme (Homo sapiens, UniProt O75874, R132H); test: NADPH depletion assay, IDH1 R132H; format: biochemical
T2 construct: purchased not specified
Outline: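 IDH1 R132H enzyme (8 nM as diluted) in Tris-HCl pH 7.6 with 10 mM MgCl2, 0.001% Triton X-100 and 4 mM β-mercaptoethanol is preincubated 15 min at RT with compound. Substrate mix (12 uM NADPH, 3.4 mM α-ketoglutarate) is added for 60 min; remaining NAD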

HT-1080 (IDH1^R132C) = test: Cellular 2-HG production assay, HT-1080; format: cell-based; conditions: Homo sapiens, HT-1080, 72 h, inhibition of 2HG production, 72 hr incubation, LC-MS/MS; read-out: HT1080 2-HG IC50
Procedure: as §1, §2, §3, §4, §5

IDH2^R172K = target: T3, IDH2^R172K (Homo sapiens, UniProt P48735, R172K); test: NADPH depletion assay, IDH2 R172K; format: biochemical
T3 construct: purchased not specified
T3 sequence (P48735 40-452 R172K): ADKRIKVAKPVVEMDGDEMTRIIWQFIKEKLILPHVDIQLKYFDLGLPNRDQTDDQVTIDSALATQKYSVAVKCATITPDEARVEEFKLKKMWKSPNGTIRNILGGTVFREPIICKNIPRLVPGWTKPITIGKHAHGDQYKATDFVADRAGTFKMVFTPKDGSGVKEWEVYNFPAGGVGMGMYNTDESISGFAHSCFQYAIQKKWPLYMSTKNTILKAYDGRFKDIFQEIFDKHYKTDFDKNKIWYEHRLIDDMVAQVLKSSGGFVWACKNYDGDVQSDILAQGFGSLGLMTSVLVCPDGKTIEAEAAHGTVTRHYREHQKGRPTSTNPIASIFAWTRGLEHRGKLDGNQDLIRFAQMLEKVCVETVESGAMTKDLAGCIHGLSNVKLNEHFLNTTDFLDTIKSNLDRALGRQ
Outline: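 IDH2 R172K (16 nM) was preincubated 15 min at RT with compound (1:3 series from 1 mM in DMSO) in Tris pH 7.6/NaCl/MgCl2/Triton/β-mercaptoethanol. The reaction ran 60 min at RT with 0.55 mM alpha-ketoglutarate and NADPH (12 μM in the substrate mix). Remaining NADPH was read with diaphorase/resazurin fluorescence at Ex544/Em590.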

IDH1WT enzyme = target: T4, IDH1WT enzyme (Homo sapiens, UniProt O75874); test: Enzymatic assay for IDH1 wild-type (NADPH forming assay); format: biochemical
T4 construct: purchased not specified
Procedure: IDH1WT enzymatic activity converting isocitric acid to alpha-ketoglutarate is measured using a NADPH forming assay. In the assay the forming cofactor is measured in continuous with the addition of a catalytic excess of diaphorase and resazurin, to generate a fluorescent signal in proportion to the amount of NADPH forming.
Compounds were preincubated with the enzyme, then the reaction was started by the addition of NADP^+, isocitrate, diaphorase and a corresponding substrate, resazurin. Diaphorase reduces resazurin to the highly fluorescent resorufin with the concomitant oxidation of NADPH to NADP. Specifically, 0.2 uL of test compound, previously serially diluted 1 to 3, 10 experimental points from 1 mM in DMSO, was added to 0.016 nM IDH1WT enzyme in 10 μL of Assay Buffer (150 mM NaCl, 50 mM Tris-HCl pH 7.6, 10 mM MgCl2, 0.001% Triton X-100, 4 mM β-mercaptoethanol); the mixture is incubated for 15 minutes at room temperature. The reaction is started with the addition of 10 μL of Substrate Mix (400 μM NADP^+, 40 μM iso-citrate, 5 ugr/mL Diaphorase and 7 μM resazurin in Assay Buffer), the mixture is incubated at room temperature and the reaction is reading on a ViewLux as platereader at Ex544/Em590 in continuous.

T1 sequence (O75874 whole entry R132C): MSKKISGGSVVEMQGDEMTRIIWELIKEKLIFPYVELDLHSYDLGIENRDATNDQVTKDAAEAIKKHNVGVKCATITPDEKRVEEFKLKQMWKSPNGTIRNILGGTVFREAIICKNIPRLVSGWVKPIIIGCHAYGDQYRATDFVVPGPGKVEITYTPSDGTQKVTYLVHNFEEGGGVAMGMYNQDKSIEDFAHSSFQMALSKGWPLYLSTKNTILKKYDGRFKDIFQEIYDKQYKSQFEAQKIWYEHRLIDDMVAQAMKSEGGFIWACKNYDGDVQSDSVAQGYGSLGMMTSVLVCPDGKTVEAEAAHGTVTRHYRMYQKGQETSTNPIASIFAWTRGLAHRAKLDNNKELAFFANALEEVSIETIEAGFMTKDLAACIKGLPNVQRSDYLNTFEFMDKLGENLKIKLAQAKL
T2 sequence (O75874 whole entry R132H): as the sequence (O75874 whole entry R132C) above, with C132H counted along it
T4 sequence (O75874 whole entry): as the sequence (O75874 whole entry R132C) above, with C132R counted along it

IC50 (IDH1^R132C) [nM] | IC50 (U87MG_IDH1R132H) [nM] | IC50 [1] [nM] | IC50 (HT-1080 (IDH1^R132C)) [nM] | IC50 (IDH2^R172K) [nM] | IC50 (IDH1WT enzyme) [nM] | Structure (SMILES)
67 | 507 | 118 | 307 | 4360 |  | C[C@H](Nc1ncc2ccc(=O)n(CC(C)(C)C)c2n1)c1ccc(Oc2ccccc2)cc1 [cpd 49, 8-(2,2-dimethylpropyl)-2-{[(1S)-1-(4-phenoxyphenyl)ethyl]amino}pyrido[2,3-d]pyrimidin-7(8H)-one]
811 |  | 392 |  | 431 | 5460 | C=CC(=O)N1CCN(Cc2ccc([C@H](C)Nc3ncc4ccc(=O)n(CC)c4n3)cc2)CC1 [cpd 186, 2-{[(1S)-1-{4-[(4-acryloylpiperazin-1-yl)methyl]phenyl}ethyl]amino}-8-ethylpyrido[2,3-d]pyrimidin-7(8H)-one]
94 | 691 | 161 | 353 | 4540 |  | C[C@H](Nc1ncc2ccc(=O)n([C@@H](C)C3CCCCC3)c2n1)c1ccc(CN2CCCC(F)(F)C2)cc1 [cpd 66, 8-[(1S)-1-cyclohexylethyl]-2-{[(1S)-1-{4-[(3,3-difluoropiperidin-1-yl)methyl]phenyl}ethyl]amino} pyrido[2,3-d]pyrimidin-7(8H)-one]
351 |  | 175 |  | 878 | 2140 | C=CC(=O)N1CCN(c2ccc([C@H](C)Nc3ncc4ccc(=O)n([C@@H](C)C(C)C)c4n3)cn2)CC1 [cpd 181, 2-({(1S)-1-[6-(4-acryloylpiperazin-1-yl)pyridin-3-yl]ethyl}amino)-8-[(2S)-3-methylbutan-2-yl]pyrido[2,3-d]pyrimidin-7(8H)-one]
 |  |  |  |  | 4290 | C=CC(=O)N1CCN(Cc2ccc([C@H](C)Nc3ncc4ccc(=O)n(C(C)C)c4n3)cn2)CC1 [cpd 213, 2-{[(1S)-1-{6-[(4-acryloylpiperazin-1-yl)methyl]pyridin-3-yl}ethyl]amino}-8-(propan-2-yl)pyrido[2,3-d]pyrimidin-7(8H)-one]
44 | 462 | 82 | 169 | 5700 |  | CC[C@H](C)n1c(=O)ccc2cnc(N[C@@H](C)c3ccc(CN4CCCC(F)(F)C4)cc3)nc21 [cpd 62, 8-[(2S)-butan-2-yl]-2-{[(1S)-1-{4-[(3,3-difluoropiperidin-1-yl)methyl]phenyl}ethyl]amino}pyrido[2,3-d]pyrimidin-7(8H)-one]
101 | 612 | 176 | 311 | 5020 |  | C[C@H](Nc1ncc2ccc(=O)n(CC(C)(C)C(F)(F)F)c2n1)c1ccc(CN2CCC(F)(F)CC2)cc1 [cpd 116, 2-{[(1S)-1-{4-[(4,4-difluoropiperidin-1-yl)methyl]phenyl}ethyl]amino}-8-(3,3,3-trifluoro-2,2-dimethylpropyl) pyrido[2,3-d]pyrimidin-7(8H)-one]
30 |  | 84 |  |  | 3900 | C=C(C)C(=O)N1CCN(Cc2ccc([C@H](C)Nc3ncc4ccc(=O)n([C@@H](C)C(C)C)c4n3)cc2)CC1 [cpd 162, 8-((S)-1,2-Dimethyl-propyl)-2-((S)-1-{4-[4-(2-methyl-acryloyl)-piperazin-1-ylmethyl]-phenyl}-ethylamino)-8H-pyrido[2,3-d]pyrimidin-7-one]
13 |  | 22 |  | 299 | 908 | C=CC(=O)N1CCN(Cc2ccc([C@H](C)Nc3ncc4ccc(=O)n([C@@H](C)C(C)C)c4n3)cc2)CC1 [cpd 161, 2-{(S)-1-[4-(4-Acryloyl-piperazin-1-ylmethyl)-phenyl]-ethylamino}-8-((S)-1,2-dimethyl-propyl)-8H-pyrido[2,3-d]pyrimidin-7-one]
29 | 646 | 78 | 315 |  |  | CC(C)[C@H](C)n1c(=O)ccc2cnc(N[C@@H](C)c3ccc(CN4CCOCC4)c(F)c3)nc21 [cpd 68, 2-({(1S)-1-[3-fluoro-4-(morpholin-4-ylmethyl)phenyl]ethyl}amino)-8-[(2S)-3-methylbutan-2-yl]pyrido[2,3-d]pyrimidin-7(8H)-one]
179 |  | 193 |  | 414 | 2850 | C=CC(=O)N1CCN(Cc2ccc([C@H](C)Nc3ncc4ccc(=O)n([C@@H](C)C(F)(F)F)c4n3)cc2)CC1 [cpd 169, 2-{[(1S)-1-{4-[(4-acryloylpiperazin-1-yl)methyl]phenyl}ethyl]amino}-8-[(2S)-1,1,1-trifluoropropan-2-yl]pyrido [2,3-d]pyrimidin-7(8H)-one]
25 |  | 78 |  |  | 6800 | C=C(C)C(=O)N1CCN(Cc2ccc([C@H](C)Nc3ncc4ccc(=O)n(CC(C)(C)C)c4n3)cc2)CC1 [cpd 144, 8-(2,2-dimethylpropyl)-2-{[(1S)-1-(4-{[4-(2-methylacryloyl)piperazin-1-yl]methyl}phenyl)ethyl]amino} pyrido [2,3-d]pyrimidin-7(8H)-one]
90 | 637 | 167 | 442 | 3110 |  | CC(C)n1c(=O)ccc2cnc(N[C@@H](C)c3ccc(CN4CCCC(F)(F)C4)cc3)nc21 [cpd 170, 2-{[(1S)-1-{4-[(3,3-difluoropiperidin-1-yl)methyl]phenyl}ethyl]amino}-8-(propan-2-yl)pyrido[2,3-d]pyrimidin-7(8H)-one]
104 | 2610 | 238 | 590 |  |  | C[C@H](Nc1ncc2ccc(=O)n(CC(C)(C)C)c2n1)c1ccc(CN2CCOCC2)cc1 [cpd 110, 8-(2,2-dimethylpropyl)-2-({(1S)-1-[4-(morpholin-4-ylmethyl)phenyl]ethyl}amino)pyrido[2,3-d]pyrimidin-7(8H)-one]
16 |  | 29 |  | 137 | 758 | C=CC(=O)N1CC=C(c2ccc([C@H](C)Nc3ncc4ccc(=O)n([C@@H](C)C(C)C)c4n3)cc2)CC1 [cpd 168, 2-({(1S)-1-[4-(1-acryloyl-1,2,3,6-tetrahydropyridin-4-yl)phenyl]ethyl}amino)-8-[(2S)-3-methylbutan-2-yl]pyrido [2,3-d]pyrimidin-7(8H)-one]
